From PMC9202104 (BMC Biology, 2022)

Assays:
[1] = test system: ZIKV human strain IbH 30656; assay: Plaque assay, inhibition of ZIKV infection (strain IbH 30656); type: cell-based; conditions: Zika virus, Vero C1008; plaque assay, Vero E6 cells, human strain; read-out: IC50 IbH 30656
Protocol: (§1) After removal of the unbound compounds by centrifugation (after addition of 3% PEG-6000), ZIKV was incubated with Vero E6 cells in 24-well plates at 37°C for 1 h. The cells were then washed with PBS, overlaid with DMEM containing 1% carboxymethyl cellulose and 2% FBS, and cultured at 37°C for 4–5 days, followed by being stained with 0.5% crystal violet. […] Plaques in each well were calculated, and IC50 of compounds for each compound was calculated using the CalcuSyn computer program.

ZIKV NS2B-NS3 protein = biological target: T1, ZIKV NS2B-NS3 protein (Zika virus, UniProt Q32ZE1); assay: SPR binding to ZIKV NS2B-NS3
T1 construct: fused with the genes encoding NS3 protein (residues 1-185) through a linker (Gly4-Thr-Gly4); His6 (C); made in house; host or cells: E. coli
T1 sequence (Q32ZE1 1499-1683, added parts left off, change not shown): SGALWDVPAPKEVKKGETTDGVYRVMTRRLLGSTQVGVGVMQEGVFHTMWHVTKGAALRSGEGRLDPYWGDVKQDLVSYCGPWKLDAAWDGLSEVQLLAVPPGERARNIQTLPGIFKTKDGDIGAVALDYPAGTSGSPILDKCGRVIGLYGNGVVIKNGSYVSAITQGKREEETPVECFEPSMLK
Protocol: (§2) (GE Healthcare, Port Washington, NY, USA). Briefly, ZIKV EDIII protein or NS2B-NS3 protein was immobilized on a sensor chip (CM5) using the Amine Coupling Kit (GE Healthcare). Serially diluted ST087010 was added as analytes, and HBS-EP with 10% DMSO (10 mM HEPES, 150 mM NaCl, 3 mM EDTA, 0.05% Tween-20, 10% DMSO, pH 7.4) was used as a running buffer. Biacore BK evaluation software (version 1.1) was applied to analyze the data, and the curve was fitted with a 1:1 binding model.

ZIKV NS2B-NS3 protease = biological target: T2, ZIKV NS2B-NS3 protease (Zika virus, UniProt Q32ZE1); assay: Fluorescence-based NS2B-NS3 protease inhibition assay; type: biochemical
T2 construct: fused with the genes encoding NS3 protein (residues 1-185) through a linker (Gly4-Thr-Gly4); His6 (C); made in house; host or cells: E. coli
T2 sequence (Q32ZE1 1499-1683, added parts left off, change not shown): as above
Protocol: Substrate (benzoyl-norleucinelysine-lysine-arginine 7-amino-4-methylcoumarine (Bz-Nle-Lys-Lys-Arg-AMC, 4 μM)) (Bachem, Torrance, CA, USA) was added and incubated for 10 min. Fluorescence intensity was then measured at 460 nm (with excitation at 355 nm) using a microplate reader (FLUOstar Omega, BMG Labtech, USA). A total of 10 mM Tris-HCl, 20% glycerol, 1 mM CHAPS, and 5% DMSO (pH 8.5) were used as reaction and dilution buffers. Percent inhibition (% inhibition) of protease activity was measured in the presence or absence of serially diluted compounds based on the formula ((1-(NS2B-NS3-substrate-compound)/(NS2B-NS3-substrate))×100).

ZIKV EDIII protein = biological target: T3, ZIKV EDIII protein (Zika virus, UniProt A0A024B7W1); assay: SPR binding to ZIKV EDIII
T3 construct: EDIII (residues 298-409 in E protein containing a C-terminal human Fc tag); human Fc (C)
T3 sequence (A0A024B7W1 588-699): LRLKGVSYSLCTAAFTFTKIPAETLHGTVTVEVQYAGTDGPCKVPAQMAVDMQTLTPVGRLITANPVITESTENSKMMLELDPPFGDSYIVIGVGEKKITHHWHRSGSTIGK
Protocol: as §2

[2] = test system: ZIKV mosquito strain MEX 2-81; assay: Plaque assay, inhibition of ZIKV infection (strain MEX 2-81); type: cell-based; conditions: Zika virus, Vero C1008; plaque assay, Vero E6 cells, mosquito strain; read-out: IC50 MEX 2-81
Protocol: as §1

[3] = test system: ZIKV human strain R116265; assay: Plaque assay, inhibition of ZIKV infection (strain R116265); type: cell-based; conditions: Zika virus, Vero C1008, Vero E6 cells
Protocol: as §1

[4] = test system: ZIKV human strain R103451; assay: Lethal ZIKV challenge in adult Ifnar1−/− mice, survival and weight; type: in vivo
Protocol: Briefly, 7–8-week-old male mice were used, and two separate experiments were performed. […] These mice were i.p. infected with ZIKV (human strain R103451, 200 PFU/mouse) and observed daily for weight changes and survival until 21 dpi. […] Five days later, these mice were sacrificed, and their tissues, including the heart, testis, eye, kidney, and brain, were collected for detection of viral titers by plaque assay, or apoptosis by immunofluorescence staining. Mice losing 20% of initial weight with severe symptoms, including hind limb weakness and paralysis, or 25% of initial weight, were humanely euthanized with an overdose isoflurane in a Bell Jar, followed by cervical dislocation.

DENV-2 human strain V594 = assay: DENV-2 challenge in Ifnar1−/− mice, flow cytometry titers; type: in vivo; conditions: 20 mg/kg i.p., 3 dpi
Protocol: Three days after infection, sera and tissues, including the brain, kidney, and heart, were collected and assessed for DENV infection using a flow cytometry assay, as described below. Tissues were freshly homogenized with cold culture medium (EMEM + 2% FBS) and centrifuged at 4°C and 2000 g for 10 min. Serially diluted tissue supernatants and sera were added to C6/36 cells, as described below. DENV titers in tissues or sera were assessed from ~20 mg of tissue samples, or 25 μl of sera, and used for subsequent flow cytometry analysis.
Flow cytometry assay was carried out to analyze DENV-2 titers in the supernatants of homogenized tissues and sera from DENV-2-infected mice collected above. Briefly, homogenized tissue supernatants or sera were added to C6/36 cells (5×10^5 cells/well) pre-seeded in 24-well plates which the culture medium was removed, and the cells were incubated for 1 h (28°C, 5% CO2). After incubation, the cells were washed with PBS, incubated with EMEM containing 2% FBS, and then cultured for 3 days as described above. After further removal of medium, the cells were digested, washed with PBS, and resuspended in FIX/PERM solution (Tonbo Biosciences, San Diego, CA, USA), followed by incubation at 4°C for 1 h in the dark. The cells were then sequentially incubated with mouse anti-flavivirus mAb 4G2 (2 μg/ml) at 37°C for 1 h and FITC-labeled anti-mouse IgG (0.5 mg/ml, BioLegend, San Diego, CA, USA) at 37°C for 30 min, followed by analysis using a FACScan flow cytometer and Summit software. Viral titers (infectious units/ml or infectious units/g) were calculated using the formula ((% of infected cells)×(total number of cells)×(dilution factor)/(amount of inoculum added to cells)).

[5] = C6/36 cells, flow cytometry, representative image

Question: Cc1cc2c(C(C)C)c(O)c(O)c(/C=N/n3c(=O)[nH][nH]c3=O)c2c(O)c1-c1c(C)cc2c(C(C)C)c(O)c(O)c(/C=N/n3c(=O)[nH][nH]c3=O)c2c1O [ST087010] was tested. Which IC50 [1] did it give?
Answer: Its IC50 is 2.9 µM.

Question: What about the Kd (ZIKV NS2B-NS3 protein) of the same molecule?
Answer: The Kd was 19.9 µM.

Question: And the IC50 (ZIKV NS2B-NS3 protease)?
Answer: Its IC50 is 4.84 µM.

Question: And the Kd (ZIKV EDIII protein)?
Answer: The Kd was 4.95 µM.

Question: And the IC50 [2]?
Answer: Its IC50 is 2.9 µM.

Question: What about the IC50 [3] of the same molecule?
Answer: The IC50 was 2.9 µM.

Question: And the “Mice protected from death (survival)” value ([4]; 20 mg/kg i.p. 12 h before and 6, 24, 48 h post-infection, ZIKV R103451 200 PFU, observed 21 days)?
Answer: Its value is 50%.

Question: And the Weight loss ([4]; 20 mg/kg i.p., ZIKV R103451 200 PFU, ST087010 figure during 6–12 dpi)?
Answer: The Weight loss was “less than 25%”.

Question: What about the “Body weight relative to weight before the virus infection” value ([4]; 20 mg/kg i.p., ZIKV R103451, until 21 dpi) of the same molecule?
Answer: The value was 85%.

Question: And the “Numbers of infected cells (viral titers) in the brain, kidney, heart, and sera” value (DENV-2 human strain V594; DENV-2 V594 2×10^6 PFU, compared to gossypol and DMSO)?
Answer: Its value is “significantly reduced”.

Question: What about the “DENV-2 in brain, percentage of infected cells” value (DENV-2 human strain V594; [5]) of the same molecule?
Answer: The value was 1.1%.

Question: And the “DENV-2 in heart, percentage of infected cells” value (DENV-2 human strain V594; [5])?
Answer: Its value is 1.0%.

Question: And the “DENV-2 in kidney, percentage of infected cells” value (DENV-2 human strain V594; [5])?
Answer: Its value is 3.1%.

Question: And the “DENV-2 in sera, percentage of infected cells” value (DENV-2 human strain V594; [5])?
Answer: Its value is 1.3%.
